The test system of the test is IL-1β release in U937 cells after NLRP3 activation. The test can be described thus: IL-1β release inhibition in U937 cells (MSD V-Plex). To be noted: Homo sapiens, PMA-differentiated U937 cells, 1 μg/mL LPS 3 h, compound 30 min, 10 mM nigericin 1 h.
Where [1] appears, read: U-937, read-out: IL-1β IC50, Table 3.

The source of these data is patent US20260217677A1, “ORGANIC COMPOUNDS AS NLRP3 INHIBITORS” (KODIAK SCIENCES, INC., priority 2023, published 2026).

Read-outs that look alike come from different tables or passages of the source.

What is called IC50 is the concentration at which inhibition is half-maximal.

As to `Cc1cc(N[C@@H]2CCCN(CCOC(=O)N3CCC(O)CC3)C2)nnc1-c1ccc2sccc2c1O` [Example 69, (R)-2-(3-((6-(4-Hydroxybenzo[b]thiophen-5-yl)-5-methylpyridazin-3-yl)amino)piperidin-1-yl)ethyl 4-hydroxypiperidine-1-carboxylate], under setting [1], the IC50 is under 5 nM.

As to `Cc1cc(N[C@@H]2CCCN(CC(=O)N3CC[C@H](O)C3)C2)nnc1-c1ccc(C(F)(F)F)cc1O` [Compound 11, 2-((R)-3-((6-(2-Hydroxy-4-(trifluoromethyl)phenyl)-5-methylpyridazin-3-yl)amino)piperidin-1-yl)-1-((S)-3-hydroxypyrrolidin-1-yl)ethan-1-one], the IC50 under setting [1] is under 5 nM.

On to `Cc1cc(N[C@@H]2CCCN(CC(=O)N3CCNCC3)C2)nnc1-c1ccc(C(F)(F)F)cc1O` [Example 103, (R)-2-(3-((6-(2-Hydroxy-4-(trifluoromethyl)phenyl)-5-methylpyridazin-3-yl)amino)piperidin-1-yl)-1-(piperazin-1-yl)ethan-1-one], for which the IC50 (U-937, read-out: IL-1β IC50, Table 4) lay in the range of 5 to 50 nM.
